For 15 molecules, IC50 results are on record in patent publication US20250346588A1, “IMIDAZOPYRIDINE AND OXAZOLOPYRIDINE DERIVATIVES AND ANALOGS THEREOF, METHODS OF PREPARATION THEREOF, METHODS OF HIF-1/2A PATHWAY INHIBITION, AND INDUCTION OF FERROPTOSIS” (KUDA THERAPEUTICS, INC., priority 2022, published 2025).

By IC50 is commonly meant the concentration needed to halve the response being measured. Low values mean greater potency in that assay, high ones weaker potency in that assay.

The structures appear in SMILES notation.

This test deals with HIF-2α transcriptional activity. In words: Hypoxia-responsive element-driven luciferase (HRE-Luc) screen. In kind it is cell-based, human. The note with it: Homo sapiens, 786-0, 24 h, 786-0 ccRCC cells stably expressing HRE-Luc; 24 h treatment; range of IC50 values. The protocol: Screens for inhibitory activity of compounds described herein were performed using 786-0 ccRCC cells that stably express HRE-Luc: 5 copies of the hypoxia-responsive element (HRE) fused to the pGL3 luciferase reporter (Promega Corp, Madison WI). 786-0 cells are pVHL deficient and thus constitutively express HIF-2α independently of cellular oxygen tension. Since 786-0 cells lack HIF-1α, HRE-driven luciferase activity is primarily HIF-2α driven, and has been previously validated. Cells were maintained at log phase growth in […] (DMEM) with 10% FBS in a humidified incubator at 37° C. with 5% CO2. For screening assays, cells were seeded at a density of 4,000 cells in 50 μl of complete media/well in quadruplicate wells/point in a 96-well plate. After 24 h, 50 μl of a 2× concentration of test compound was added to each well. Compounds were diluted from a 5-10 mM stock in DMSO and final concentrations of DMSO in each well in controls and treated wells were kept constant at ≤0.6% DMSO. After 24 h treatment, luciferase activity was measured using the Steady-Glo Luciferase assay system (Promega Corp) according to the manufacturer's protocol. Cell viability was measured in quadruplicate parallel wells using resazurin as recommended by the manufacturer (R&D systems, Minneapolis, MN). Data for luciferase and resazurin were normalized to DMSO treated controls (defining 100%) and wells containing assay reagent but no cells (defining 0%) and graphed using the log inhibitor versus normalized response option in Graphpad Prism 9.3.1 software. Representative data determined using Steady-Glo luciferase and resazurin are shown in FIGS. 1A and 1B respectively, with error bars showing SD. Filled diamonds, empty squares and empty triangles indicate treatment with 3, 8 and 22 respectively with results for HRE-Luc shown in FIG. 1A.
Molecule `COc1nccc2nc(Nc3nnc(N4CC(C)OC(C)C4)o3)[nH]c12` (stereo not drawn) [Compound 70, 5-(2,6-dimethylmorpholino)-N-(4-methoxy-3H-imidazo[4,5-c]pyridin-2-yl)-1,3,4-oxadiazol-2-amine] yielded an IC50 below 10 µM. The molecule `[2H]C([2H])([2H])Oc1ccc(-c2nnc(Nc3nc4c(OC)nccc4[nH]3)o2)cc1OC([2H])([2H])[2H]` [Compound 97, 5-(3,4-Dimethoxy-d3-phenyl)-N-(4-methoxy-1H-imidazo[4,5-c]pyridin-2-yl)-1,3,4-oxadiazol-2-amine] returned an IC50 below 10 µM. For `COc1nccc2[nH]c(Nc3nnc(-c4ccc(C(F)(F)F)cc4)o3)nc12` [Compound 20, N-(4-methoxy-1H-imidazo[4,5-c]pyridin-2-yl)-5-(4-(trifluoromethyl)phenyl)-1,3,4-oxadiazol-2-amine] the value was 10 to 50 µM; for `COc1cccc2nc(Nc3nnc(C4CCC(C(C)(C)C)CC4)o3)[nH]c12` (stereo not drawn) [Compound 94, 5-(4-(tert-butyl)cyclohexyl)-N-(7-methoxy-1H-benzo[d]imidazol-2-yl)-1,3,4-oxadiazol-2-amine], below 10 µM. For `COc1nccc2[nH]c(Nc3nnc(-c4ccc(C)cc4)o3)nc12` [Compound 29, N-(4-methoxy-1H-imidazo[4,5-c]pyridin-2-yl)-5-(p-tolyl)-1,3,4-oxadiazol-2-amine] the value was below 10 µM; for `COc1ccc(-c2nnc(Nc3nc4c(OC)nc(C)cc4[nH]3)o2)cc1OC` [Compound 55, 5-(3,4-dimethoxyphenyl)-N-(4-methoxy-6-methyl-1H-imidazo[4,5-c]pyridin-2-yl)-1,3,4-oxadiazol-2-amine], below 10 µM; for `COc1nccc2[nH]c(Nc3nnc(-c4ccc(OC(C)C)cc4)o3)nc12` [Compound 42, 5-(4-Isopropoxyphenyl)-N-(4-methoxy-1H-imidazo[4,5-c]pyridin-2-yl)-1,3,4-oxadiazol-2-amine], 10 to 50 µM. For `COc1nccc2[nH]c(Nc3nnc([C@H]4CC[C@H](OC)CC4)o3)nc12` [Compound 63, N-(4-methoxy-1H-imidazo[4,5-c]pyridin-2-yl)-5-((1r,4r)-4-methoxycyclohexyl)-1,3,4-oxadiazol-2-amine] the value was below 10 µM; for `COc1ccc(-c2nnc(Nc3nc4c(OC)nccc4[nH]3)o2)cc1OC` [Compound 26, N-(4-Methoxy-1H-imidazo[4,5-c]pyridin-2-yl)-5-(3,4-dimethoxyphenyl)-1,3,4-oxadiazol-2-amine], below 10 µM.

`Fc1ccc(-c2nnc(Nc3nc4ncccc4o3)o2)cc1` [Compound 8, N-(5-(4-Fluorophenyl)-1,3,4-oxadiazol-2-yl)oxazolo[4,5-b]pyridin-2-amine] yielded an IC50 above 10 µM. For `Fc1ccc(-c2nnc(Nc3nc4ccnc(-c5ccc6c(c5)OCO6)c4[nH]3)o2)cc1` [Compound 31, N-(4-(Benzo[d][1,3]dioxol-5-yl)-3H-imidazo[4,5-c]pyridin-2-yl)-5-(4-fluorophenyl)-1,3,4-oxadiazol-2-amine] the value was 10 to 50 µM; for `COc1nccc2[nH]c(Nc3nnc(-c4ccc(OC(F)(F)F)cc4)o3)nc12` [Compound 21, N-(4-methoxy-1H-imidazo[4,5-c]pyridin-2-yl)-5-(4-(trifluoromethoxy)phenyl)-1,3,4-oxadiazol-2-amine], 10 to 50 µM; for `COc1cccc2nc(Nc3nnc(C4C[C@H]5CC[C@@H]4C5)o3)[nH]c12` (stereo partly drawn) [Compound 96, 5-((1R,4S)-bicyclo[2.2.1]heptan-2-yl)-N-(7-methoxy-1H-benzo[d]imidazol-2-yl)-1,3,4-oxadiazol-2-amine], 10 to 50 µM.

`COc1ccc2nc(Nc3nnc(-c4ccc(F)cc4)o3)sc2n1` [Compound 9, 5-(4-Fluorophenyl)-N-(5-methoxythiazolo[5,4-b]pyridin-2-yl)-1,3,4-oxadiazol-2-amine]: the IC50 lay in the range of 50 to 100 µM. For `COc1cccc2[nH]c(Nc3nnc(N4CCS(=O)(=O)CC4)o3)nc12` [Compound 76, 4-(5-((4-methoxy-1H-benzo[d]imidazol-2-yl)amino)-1,3,4-oxadiazol-2-yl)thiomorpholine 1,1-dioxide] the value was above 100 µM.
